Test results from US6426229B1, “Chelating agent and detergent comprising the same” (Mitsubishi Rayon Co., Ltd., priority 1995, dated 2002).

Experiment: Storage of aqueous solution or slurry for 60 days: HPLC analysis of components and appearance
Type: physicochemical
Settings: keeping temperature 65° C.

| Appearance after kept for 60 days | Content of the compound of the formula [I] in aqueous solution after kept for 60 days [wt. %] | SMILES |
| --- | --- | --- |
| Light yellow slurry | 64.7 | C[C@@H](C(=O)[O-])N(CC(=O)[O-])CC(=O)[O-].[Na+].[Na+].[Na+] [Example 96, trisodium salt of (S)-α-alanine-N,N-diacetic acid] |
| Light yellow slurry | 63.7 | O=C([O-])CN(CCS(=O)(=O)[O-])CC(=O)[O-].[Na+].[Na+].[Na+] [Example 106, trisodium salt of taurine-N,N-diacetic acid] |
| Light yellow slurry | 64.5 | CN(CC(=O)[O-])CC(=O)[O-].[Na+].[Na+] [Example 107, disodium N-methyliminodiacetate] |

The remaining lines, values behind:

| SMILES | Appearance after kept for 60 days | Content of the compound of the formula [I] in aqueous solution after kept for 60 days [wt. %] |
| --- | --- | --- |
| O=C([O-])CN[C@@H](CC(=O)[O-])C(=O)[O-].[Na+].[Na+].[Na+] [Example 93, trisodium salt of (S)-aspartic acid-N-monoacetic acid] | Light yellow slurry | 63.7 |
| O=C([O-])C[C@@H](C(=O)[O-])N(CC(=O)[O-])CC(=O)[O-].[Na+].[Na+].[Na+].[Na+] [Example 94, tetrasodium salt of (S)-aspartic acid-N,N-diacetic acid] | Light yellow slurry | 64.5 |
| O=C([O-])CCN[C@@H](CC(=O)[O-])C(=O)[O-].[Na+].[Na+].[Na+] [Example 95, trisodium salt of (S)-aspartic acid-N-monopropionic acid] | Light yellow slurry | 65.4 |

Same assay, conditions: keeping temperature 70° C.

| SMILES | Appearance after kept for 60 days | Content of the compound of the formula [I] in aqueous solution after kept for 60 days [wt. %] |
| --- | --- | --- |
| O=C([O-])CN[C@@H](CC(=O)[O-])C(=O)[O-].[Na+].[Na+].[Na+] [Example 97, trisodium salt of (S)-aspartic acid-N-monoacetic acid] | White slurry | 76.8 |
| O=C([O-])C[C@@H](C(=O)[O-])N(CC(=O)[O-])CC(=O)[O-].[Na+].[Na+].[Na+].[Na+] [Example 98, tetrasodium salt of (S)-aspartic acid-N,N-diacetic acid] | White slurry | 78.5 |
| O=C([O-])CCN[C@@H](CC(=O)[O-])C(=O)[O-].[Na+].[Na+].[Na+] [Example 99, trisodium salt of (S)-aspartic acid-N-monopropionic acid] | White slurry | 79.4 |

Same assay, conditions: keeping temperature 75° C.

| Appearance after kept for 60 days | Content of the compound of the formula [I] in aqueous solution after kept for 60 days [wt. %] | SMILES |
| --- | --- | --- |
| Colorless transparent aqueous solution | 49.4 | O=C([O-])CN(CCS(=O)(=O)[O-])CC(=O)[O-].[Na+].[Na+].[Na+] [Example 103, trisodium salt of taurine-N,N-diacetic acid] |
| Colorless transparent aqueous solution | – | CN(CC(=O)[O-])CC(=O)[O-].[Na+].[Na+] [Example 104, disodium N-methyliminodiacetate] |

Further lines, the compound ahead of its results:

| SMILES | Appearance after kept for 60 days | Content of the compound of the formula [I] in aqueous solution after kept for 60 days [wt. %] |
| --- | --- | --- |
| C[C@@H](C(=O)[O-])N(CC(=O)[O-])CC(=O)[O-].[Na+].[Na+].[Na+] [Example 92, trisodium salt of (S)-α-alanine-N,N-diacetic acid] | Colorless transparent aqueous solution | 49.8 |
| O=C([O-])CN(CC(=O)[O-])c1ccccc1C(=O)[O-].[Na+].[Na+].[Na+] [Example 105, trisodium salt of anthranilic acid-N,N-diacetic acid] | Colorless transparent aqueous solution | 49.8 |
